From ChEMBL document CHEMBL1201862, “PubChem BioAssay data set” (2004)
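96-well plates; 48 h exposure; 5 concentrations. Endpoints by linear interpolation between flanking doses. Not reached: highest tested concentration assigned. GI50: concentration for 50% inhibition of growth.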 The source made the active and inactive calls. Rule as the data show it: active = GI50 up to about 1.1 µM and inactive = higher.

Experiments:
Assay in all cases: inhibition of tumour cell growth, NCI panel, 48 h
786-0 = tested on: 786-0
MDA-MB-435 = tested on: MDA-MB-435
HCT-116 = tested on: HCT-116
U-251 = tested on: U-251
MDA-MB-231 = tested on: MDA-MB-231
BT-549 = tested on: BT-549
SK-MEL-28 = tested on: SK-MEL-28
SF-268 = tested on: SF-268
SN12C = tested on: SN12C
RPMI-8226 = tested on: RPMI-8226
SK-MEL-2 = tested on: SK-MEL-2
SF-295 = tested on: SF-295
HL-60 = tested on: HL-60
M14 = tested on: M14
TK-10 = tested on: TK-10
OVCAR-3 = tested on: OVCAR-3
OVCAR-5 = tested on: OVCAR-5
SR = tested on: SR
SW-620 = tested on: SW-620
OVCAR-4 = tested on: OVCAR-4

Row | Structure (SMILES) | GI50 (786-0) | GI50 (MDA-MB-435) | GI50 (HCT-116) | GI50 (U-251) | GI50 (MDA-MB-231) | GI50 (BT-549) | GI50 (SK-MEL-28) | GI50 (SF-268) | GI50 (SN12C) | GI50 (RPMI-8226) | GI50 (SK-MEL-2) | GI50 (SF-295) | GI50 (HL-60) | GI50 (M14) | GI50 (TK-10) | GI50 (OVCAR-3) | GI50 (OVCAR-5) | GI50 (SR) | GI50 (SW-620) | GI50 (OVCAR-4)
1 | Nc1nc(-c2ccccc2)nc2oc(-c3cccs3)nc12 | > 100 µM (inactive) | > 100 µM (inactive) | > 100 µM (inactive) | > 100 µM (inactive) | > 100 µM (inactive) | > 100 µM (inactive) | > 100 µM (inactive) | > 100 µM (inactive) | > 100 µM (inactive) | > 100 µM (inactive) | > 100 µM (inactive) | > 100 µM (inactive) | > 100 µM (inactive) | > 100 µM (inactive) | > 100 µM (inactive) | > 100 µM (inactive) | > 100 µM (inactive) | > 100 µM (inactive) | > 100 µM (inactive) | –
2 | COc1ccc(-n2c(N)c(C#N)c(C#N)c2-c2ccccc2)cc1 | 45.3 µM (inactive) | > 100 µM (inactive) | > 100 µM (inactive) | 30.1 µM (inactive) | > 100 µM (inactive) | 19.1 µM (inactive) | – | 31.1 µM (inactive) | > 100 µM (inactive) | > 100 µM (inactive) | 22.8 µM (inactive) | 31.8 µM (inactive) | > 100 µM (inactive) | > 100 µM (inactive) | > 100 µM (inactive) | > 100 µM (inactive) | > 100 µM (inactive) | > 100 µM (inactive) | > 100 µM (inactive) | 15.1 µM (inactive)
3 | Cc1ccc(S(=O)(=O)NNC(C[N+](=O)[O-])c2ccccc2)cc1 (configuration not stated) | 22.6 µM (inactive) | 2.91 µM (inactive) | 4.14 µM (inactive) | 14.5 µM (inactive) | 28.4 µM (inactive) | 15.6 µM (inactive) | – | 15.3 µM (inactive) | 32 µM (inactive) | 3.56 µM (inactive) | 34.2 µM (inactive) | 21.3 µM (inactive) | 3.71 µM (inactive) | 5.65 µM (inactive) | 24.2 µM (inactive) | 21.7 µM (inactive) | 44.8 µM (inactive) | 1.06 µM (active) | 11.5 µM (inactive) | 15.8 µM (inactive)
4 | ClC1(Cl)C2CCOC21n1cnc2ccccc21 (configuration not stated) | > 100 µM (inactive) | > 100 µM (inactive) | > 100 µM (inactive) | > 100 µM (inactive) | > 100 µM (inactive) | > 100 µM (inactive) | > 100 µM (inactive) | > 100 µM (inactive) | > 100 µM (inactive) | > 100 µM (inactive) | > 100 µM (inactive) | > 100 µM (inactive) | > 100 µM (inactive) | > 100 µM (inactive) | – | > 100 µM (inactive) | > 100 µM (inactive) | > 100 µM (inactive) | 7.21 µM (inactive) | 67.3 µM (inactive)
5 | S=c1sscc1N1CCSc2ssc(=S)c21 | 33.7 µM (inactive) | > 100 µM (inactive) | 87.1 µM (inactive) | 13.8 µM (inactive) | 30.1 µM (inactive) | 37 µM (inactive) | > 100 µM (inactive) | 35.9 µM (inactive) | 25.8 µM (inactive) | > 100 µM (inactive) | 78.2 µM (inactive) | – | > 100 µM (inactive) | > 100 µM (inactive) | 24.8 µM (inactive) | – | > 100 µM (inactive) | > 100 µM (inactive) | > 100 µM (inactive) | 7.45 µM (inactive)
6 | COc1cccc(OC)c1C1ON=C(c2ccccc2)N1C12CC3CC(CC(C3)C1)C2 (configuration not stated) | 42.1 µM (inactive) | > 100 µM (inactive) | 51.2 µM (inactive) | 30.1 µM (inactive) | > 100 µM (inactive) | > 100 µM (inactive) | > 100 µM (inactive) | > 100 µM (inactive) | > 100 µM (inactive) | 4.41 µM (inactive) | 64 µM (inactive) | > 100 µM (inactive) | 1.87 µM (inactive) | 78 µM (inactive) | 36.6 µM (inactive) | > 100 µM (inactive) | 46.2 µM (inactive) | 5.92 µM (inactive) | > 100 µM (inactive) | –
7 | N#Cc1c(C#N)c(-c2ccccc2)n(/N=C\c2ccccc2)c1N | 28.1 µM (inactive) | 45.4 µM (inactive) | 29.4 µM (inactive) | 16.5 µM (inactive) | 16 µM (inactive) | 18.7 µM (inactive) | – | 28.8 µM (inactive) | 47 µM (inactive) | 3.46 µM (inactive) | 22.2 µM (inactive) | 7.4 µM (inactive) | 16.1 µM (inactive) | 24.8 µM (inactive) | 29.4 µM (inactive) | 12.9 µM (inactive) | 29 µM (inactive) | 10.4 µM (inactive) | 62.4 µM (inactive) | 12.9 µM (inactive)
8 | Nc1nc(-c2ccccc2)c(Cl)c(-c2cc(Cl)ccc2O)n1 | 24.4 µM (inactive) | > 100 µM (inactive) | 13.4 µM (inactive) | 15.2 µM (inactive) | 48.5 µM (inactive) | 20.4 µM (inactive) | 91.2 µM (inactive) | 18.3 µM (inactive) | 25.4 µM (inactive) | > 86.7 µM (inactive) | 38.4 µM (inactive) | 48.4 µM (inactive) | > 42.9 µM (inactive) | > 100 µM (inactive) | 15.5 µM (inactive) | 16.1 µM (inactive) | > 60 µM (inactive) | > 100 µM (inactive) | 44.3 µM (inactive) | 15.3 µM (inactive)
